Reference: ChEMBL document CHEMBL1201862, “PubChem BioAssay data set” (2004)
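A five-concentration, 48-hour dose response in 96-well plates underlies each endpoint, interpolated linearly between surrounding concentrations. GI50 is the concentration that inhibits growth by half.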 Calls of active or inactive are those of the source. No stated cut-off is given here; in the data, active = GI50 up to about 1.1 µM and inactive = higher.

Experiments:
Assay in all cases: NCI-60 cell line screen, 48 h
ACHN = tested on: ACHN
786-0 = tested on: 786-0
HOP-92 = tested on: HOP-92
HCC 2998 = tested on: HCC 2998
SK-MEL-28 = tested on: SK-MEL-28
NCI/ADR-RES = tested on: NCI/ADR-RES
MDA-N = tested on: MDA-N
MDA-MB-435 = tested on: MDA-MB-435
OVCAR-5 = tested on: OVCAR-5
KM12 = tested on: KM12
UO-31 = tested on: UO-31
SNB-75 = tested on: SNB-75
OVCAR-4 = tested on: OVCAR-4
BT-549 = tested on: BT-549
SF-539 = tested on: SF-539
M14 = tested on: M14
UACC-257 = tested on: UACC-257
PC-3 = tested on: PC-3
NCI-H522 = tested on: NCI-H522
MCF7 = tested on: MCF7

Measured: GI50

CC(=O)/C(=C/NC(=S)N/N=C1\C(=O)Nc2ccccc21)C(=O)Nc1ccccc1C
inactive: ACHN 96.2 µM | 786-0 82.2 µM | HOP-92 > 100 µM | HCC 2998 > 100 µM | SK-MEL-28 > 100 µM | NCI/ADR-RES > 100 µM | MDA-N > 100 µM | MDA-MB-435 > 100 µM | OVCAR-5 > 100 µM | KM12 98.9 µM | UO-31 44.3 µM | SNB-75 52.4 µM | OVCAR-4 > 100 µM | BT-549 > 100 µM | SF-539 > 100 µM | M14 > 100 µM | UACC-257 > 100 µM

CO/N=C(/C(=O)OC)c1ccccc1COc1cccc(C(F)(F)F)c1
inactive: PC-3 22 µM | ACHN 33.3 µM | 786-0 30.7 µM | HOP-92 36.2 µM | SK-MEL-28 78.7 µM | NCI/ADR-RES 36.9 µM | MDA-N 27.4 µM | MDA-MB-435 29.3 µM | OVCAR-5 76.2 µM | NCI-H522 20 µM | KM12 18.8 µM | UO-31 39.8 µM | SNB-75 31.7 µM | OVCAR-4 19.5 µM | SF-539 54.1 µM | MCF7 25.3 µM | M14 24.6 µM | UACC-257 8.51 µM

c1cnc2c(c1)Nc1cnncc1S2
inactive: PC-3 > 100 µM | ACHN > 100 µM | 786-0 > 100 µM | HOP-92 86.3 µM | HCC 2998 > 100 µM | SK-MEL-28 > 100 µM | NCI/ADR-RES > 100 µM | MDA-N > 100 µM | MDA-MB-435 > 100 µM | OVCAR-5 > 100 µM | NCI-H522 > 100 µM | KM12 > 100 µM | UO-31 84.1 µM | SNB-75 12.2 µM | OVCAR-4 > 100 µM | SF-539 > 100 µM | MCF7 > 100 µM | M14 > 100 µM | UACC-257 > 100 µM

CC(=O)O/C=C\OC1CCCC1
inactive: PC-3 > 100 µM | ACHN > 100 µM | 786-0 > 100 µM | HOP-92 > 100 µM | HCC 2998 > 100 µM | SK-MEL-28 > 100 µM | NCI/ADR-RES > 100 µM | MDA-N > 100 µM | MDA-MB-435 > 100 µM | NCI-H522 > 100 µM | KM12 > 100 µM | UO-31 > 100 µM | SNB-75 55 µM | OVCAR-4 > 100 µM | SF-539 > 100 µM | MCF7 > 100 µM | M14 > 100 µM | UACC-257 > 100 µM

CC1OC(OC2C(OC(=O)[C@]34CCC(C)(C)C[C@H]3C3=CC[C@@H]5[C@@]6(C)CC[C@H](OC7OC(CO)C(O)C(O)C7OC7OC(CO)C(O)C(O)C7O)C(C)(C)[C@@H]6CC[C@@]5(C)[C@]3(C)CC4)OCC(O)C2O)C(O)C(O)C1OC1OCC(O)C(O)C1O (stereo partly drawn)
inactive: PC-3 12.4 µM | ACHN 11.9 µM | 786-0 8.3 µM | HOP-92 6.85 µM | HCC 2998 1.98 µM | SK-MEL-28 2.65 µM | NCI/ADR-RES 8.97 µM | MDA-MB-435 2.79 µM | OVCAR-5 7.98 µM | NCI-H522 3.67 µM | KM12 7.73 µM | UO-31 2.3 µM | SNB-75 16.7 µM | OVCAR-4 9.59 µM | BT-549 9.12 µM | SF-539 45.8 µM | MCF7 12.6 µM | M14 4.67 µM | UACC-257 2.51 µM

CC1=NN(c2nc(N)nc(C(C)Sc3cc(Cl)c(C)cc3S(N)(=O)=O)n2)C(C)(C)C1 (stereo not drawn)
inactive: PC-3 > 10 µM | ACHN > 10 µM | 786-0 > 10 µM | HOP-92 > 10 µM | HCC 2998 > 10 µM | SK-MEL-28 > 10 µM | NCI/ADR-RES > 10 µM | MDA-N > 10 µM | OVCAR-5 > 10 µM | NCI-H522 > 10 µM | KM12 > 10 µM | UO-31 > 10 µM | SNB-75 > 10 µM | OVCAR-4 > 10 µM | BT-549 > 10 µM | SF-539 > 10 µM | MCF7 > 10 µM | M14 > 10 µM | UACC-257 > 10 µM

O=C(Cc1nc2ccc([N+](=O)[O-])cc2nc1O)C(=O)Nc1ccccc1[N+](=O)[O-]
inactive: ACHN > 100 µM | 786-0 > 100 µM | HOP-92 > 100 µM | HCC 2998 > 100 µM | SK-MEL-28 > 100 µM | OVCAR-5 > 100 µM | NCI-H522 20.3 µM | KM12 86.3 µM | UO-31 > 100 µM | SNB-75 > 100 µM | OVCAR-4 > 100 µM | SF-539 > 100 µM | M14 > 100 µM | UACC-257 > 100 µM

O=C(/C=C/c1cccs1)c1ccc(Cl)cc1
inactive: PC-3 > 100 µM | ACHN > 100 µM | 786-0 55.7 µM | HCC 2998 > 100 µM | SK-MEL-28 > 100 µM | NCI/ADR-RES > 100 µM | MDA-N 44.9 µM | OVCAR-5 > 100 µM | KM12 43.9 µM | UO-31 82.2 µM | SNB-75 > 100 µM | SF-539 > 100 µM | MCF7 21.9 µM | UACC-257 > 100 µM

C/C(=C\CNc1ncnc2c1ncn2CCC(=O)OC(C)(C)C)CO
inactive: PC-3 > 100 µM | ACHN > 100 µM | 786-0 > 100 µM | HOP-92 > 100 µM | HCC 2998 > 100 µM | SK-MEL-28 > 100 µM | NCI/ADR-RES > 100 µM | MDA-N > 100 µM | MDA-MB-435 > 100 µM | OVCAR-5 > 100 µM | NCI-H522 > 100 µM | KM12 > 100 µM | UO-31 > 100 µM | SNB-75 > 100 µM | OVCAR-4 > 100 µM | SF-539 > 100 µM | MCF7 > 100 µM | M14 > 100 µM | UACC-257 > 100 µM

O/N=N\c1nc(-c2cccnc2)nc2ccccc12
inactive: PC-3 > 100 µM | ACHN > 100 µM | 786-0 > 100 µM | HCC 2998 87.9 µM | SK-MEL-28 > 100 µM | NCI/ADR-RES > 100 µM | MDA-N > 100 µM | OVCAR-5 > 100 µM | NCI-H522 > 100 µM | KM12 > 100 µM | UO-31 17.5 µM | SNB-75 33.3 µM | OVCAR-4 > 100 µM | BT-549 > 100 µM | SF-539 > 100 µM | MCF7 > 100 µM | M14 > 100 µM | UACC-257 > 100 µM

C=CCCCCCCCCC(=O)O [UNDECYLENIC ACID]
inactive: HOP-92 83.2 µM | HCC 2998 108 µM | SK-MEL-28 135 µM | NCI/ADR-RES 172 µM | OVCAR-5 145 µM | NCI-H522 105 µM | KM12 27.7 µM | UO-31 80.7 µM | SNB-75 168 µM | OVCAR-4 132 µM | SF-539 110 µM | MCF7 152 µM | UACC-257 179 µM
